Like-named read-outs stand apart in the source and are kept apart here. Positions of bridges follow the written chain, without caps; N, C: chain ends. Residues, ends and D or L forms follow the SMILES beside them.
Legend:
hKv11.1 (hERG1) = test: Whole-cell patch-clamp, hKv11.1 current in stable HEK293 cells; type: cell-based, human; conditions: 100 nM; ~3 min
Protocol: (§1) HEK 293 cells stably expressing mKCa1.1 1 (BKCa, Kcnma1 gene, generously provided by C. Beeton from Baylor College of Medicine, Houston, TX, USA) or hKv11.1 (hERG1, KCNH2 gene, gifted by H. Wulff from University of California, Davis, CA, USA) were utilized in this study.
Whole-cell currents were recorded using the patch-clamp technique in voltage-clamp mode, following standard protocols [73]. […] Micropipettes were made from GC150F-7.5 borosilicate capillaries (Harvard Apparatus Co., Holliston, MA, USA) using a Sutter P2000 laser puller with tip resistance generally ranging from 3–6 MΩ in the bath solution. Only recordings with a leak current at the holding potential (Vh) of <10% of the peak current at the test potential were included in the data analysis. All recordings were performed at room temperature (20–25 °C). […]

mKCa1.1 (BK or MaxiK) = type: cell-based, mice; conditions: 100 nM; ~3 min
Source text: Therefore, we investigated the activity of Cvill6 and Cvill7 toxins on three different types of Ca^2+-activated K^+ channels: (1) hKCa2.2 (SK2), the small-conductance Ca^2+-activated channel; (2) hKCa3.1 (IKCa1, SK4), the intermediate-conductance Ca^2+-activated channels, mainly expressed in T lymphocytes; and (3) mKCa1.1 (BK or MaxiK), the large-conductance voltage- and Ca^2+- activated channel of mice. Appropriate depolarization protocols were applied to record the K^+ current through respective KCa channels as shown in the inset of each panel in Figure 6A–C. […] The normalized peak currents (see Section 2.4 or Section 5 for details) for individual cells (n = 5) were averaged at each time point and plotted as a function of time.
as §1
Whole-cell currents were recorded using the patch-clamp technique in voltage-clamp mode, following standard protocols [73]. […]

hKv1.3 = target: T1, hKv1.3 (Homo sapiens, UniProt P22001); test: cell-based; type: cell-based
T1 construct: peripheral blood mononuclear cells (PBMCs) were isolated from the healthy donor’s blood; endogenous in cells
Source text: Therefore, we aimed to investigate the effects of Cvill6 and Cvill7 on voltage-gated K^+ ion channels. Among the tested ion channels there were four members from the Shaker-related human Kv1 family, hKv1.1, hKv1.2, hKv1.3, and hKv1.5 (Figure 3A–E), and one member of the human ether-a-go-go-related (hERG) cardiac K^+ channel hKv11.1 (hERG1, Figure 3F). For current recordings, Kv1.1, Kv1.2, and Kv1.5 were transiently expressed in CHO cells while for Kv11.1 a stable HEK293 cell line was used. To record Kv1.3 currents human peripheral T lymphocytes were activated with Phytohemagglutinin A (PHA) to boost Kv1.3 expression and Ca^2+-free intracellular solution to prevent the KCa3.1 channel opening. […] Appropriate voltage protocols were applied to record the K^+ currents from voltage-clamped cells in whole-cell configurations. Toxins were freshly dissolved in the bath solution supplemented with 0.1 mg/mL BSA and applied to the patched cells via a gravity-fed micro-perfusion system with an approximate flow rate of 200 µL/min.
To avoid toxin adsorption onto the plastic surfaces of the perfusion system, 0.1 mg/mL of bovine serum albumin (BSA, Sigma-Aldrich, Budapest, Hungary) was also added into all bath solutions prior to the patch-clamp assay.
Whole-cell currents were recorded using the patch-clamp technique in voltage-clamp mode, following standard protocols. […] Micropipettes were made from GC150F-7.5 borosilicate capillaries (Harvard Apparatus Co., Holliston, MA, USA) using a Sutter P2000 laser puller with tip resistance generally ranging from 3–6 MΩ in the bath solution. Only recordings with a leak current at the holding potential (Vh) of <10% of the peak current at the test potential were included in the data analysis. All recordings were performed at room temperature (20–25 °C). Control and test solutions were perfused to the cells via a gravity-driven micro-perfusion system and AutoMate Perfusion Pencil Multi-Barrel Manifold Tip (AutoMate Scientific, Berkeley, CA, USA), with an approximate flow rate of 200 µL/min, and the excess amount of bath solution was continuously removed from the recording chamber using vacuum suction.
The duration of depolarization pulses was 15 ms for Kv1.3 and 50 ms for Kv1.1 and Kv1.5. However, for Kv1.2, 15–500 ms-long pulses were used to achieve the saturated peak current due to the variable activation kinetics of this channel. […] KCa2.2 and KCa3.1 currents were recorded by applying 150 ms-long voltage ramps to +50 mV from −120 mV every 10 s; the Vh was set to −85 mV.
Before analysis, all current traces were digitally filtered using three-point boxcar smoothing and were corrected for ohmic leakage, only if required. […] Data points in the concentration–response curve represent the mean RCF values of three to six individual cells, with error bars denoting the standard error of the mean (SEM). The data points for each concentration were fitted using the Hill equation: RCF = IC50^H/(IC50^H + [toxin]^H), where IC50 is the dissociation constant, H represents the Hill coefficient, and [toxin] is the concentration of the toxin.
To study the binding kinetics of Cvill toxins, the peak current during the application of toxin at time point t (It) was normalized to the peak current (I0) before the toxin exposure (Inorm = It/I0) and plotted as a function of time.

hKv1.1 = target: T2, hKv1.1 (Homo sapiens, UniProt Q09470); test: cell-based; type: cell-based
T2 construct: host or cells: CHO cells, transient transfection (Lipofectamine 2000)
Protocol: Chinese hamster ovary (CHO) cells (generously provided by Yosef Yarden, Weizmann Institute of Science, Rehovot, Israel) or human embryonic kidney (HEK293) cells were cultured and maintained in Dulbecco’s modified Eagle medium (DMEM, Thermo Fisher Scientific, Waltham, MA, USA) supplemented with 2 mM L-glutamine, 10% fetal bovine serum (FBS), 100 µg/mL streptomycin, and 100 U/mL penicillin-g (Sigma-Aldrich, Budapest, Hungary) following standard culturing conditions [52]. For transient expression of ion channels, CHO cells were transfected using the Lipofectamine 2000 kit (Invitrogen, Waltham, MA, USA) following the manufacturer’s instructions with plasmids encoding specific ion channels, including hKv1.1 (KCNA1 gene), hKv1.2 (KCNA2 gene), and hKv1.5 (KCNA5 gene) in a pCMV6-AC-GFP vector (OriGene Technologies), hKCa2.2 (KCNN2 gene) in a pCDN3 plasmid (for this transfection a GFP containing plasmid was co-transfected, courtesy of Bernard Attali, Tel Aviv University, Tel Aviv, Israel), and hKCa3.1 (KCNN4 gene) in a pEGFP-C1 vector (a kind gift by H. Wulff, University of California, Davis, CA, USA). […] Electrophysiological recordings were typically conducted 24 to 48 h after transfection.
Whole-cell currents were recorded using the patch-clamp technique in voltage-clamp mode, following standard protocols [73]. […] Micropipettes were made from GC150F-7.5 borosilicate capillaries (Harvard Apparatus Co., Holliston, MA, USA) using a Sutter P2000 laser puller with tip resistance generally ranging from 3–6 MΩ in the bath solution. Only recordings with a leak current at the holding potential (Vh) of <10% of the peak current at the test potential were included in the data analysis. All recordings were performed at room temperature (20–25 °C). Control and test solutions were perfused to the cells via a gravity-driven micro-perfusion system and AutoMate Perfusion Pencil Multi-Barrel Manifold Tip (AutoMate Scientific, Berkeley, CA, USA), with an approximate flow rate of 200 µL/min, and the excess amount of bath solution was continuously removed from the recording chamber using vacuum suction.
The duration of depolarization pulses was 15 ms for Kv1.3 and 50 ms for Kv1.1 and Kv1.5. However, for Kv1.2, 15–500 ms-long pulses were used to achieve the saturated peak current due to the variable activation kinetics of this channel [74].

[1] = read-out: inhibition of hKv1.3 current

T2 sequence (Q09470 whole entry): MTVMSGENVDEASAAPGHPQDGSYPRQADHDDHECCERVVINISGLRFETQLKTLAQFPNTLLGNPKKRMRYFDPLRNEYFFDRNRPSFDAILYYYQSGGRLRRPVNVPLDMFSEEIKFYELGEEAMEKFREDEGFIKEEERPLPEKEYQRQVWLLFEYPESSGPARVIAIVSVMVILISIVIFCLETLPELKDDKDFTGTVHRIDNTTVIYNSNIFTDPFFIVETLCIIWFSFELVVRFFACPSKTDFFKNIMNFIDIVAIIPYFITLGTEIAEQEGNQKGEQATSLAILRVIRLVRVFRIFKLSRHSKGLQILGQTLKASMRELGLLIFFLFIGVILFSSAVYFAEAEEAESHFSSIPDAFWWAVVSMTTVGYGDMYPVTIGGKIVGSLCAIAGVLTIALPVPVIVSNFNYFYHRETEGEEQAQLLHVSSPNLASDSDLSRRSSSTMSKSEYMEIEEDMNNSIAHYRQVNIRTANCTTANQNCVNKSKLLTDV
T1 sequence (P22001 whole entry): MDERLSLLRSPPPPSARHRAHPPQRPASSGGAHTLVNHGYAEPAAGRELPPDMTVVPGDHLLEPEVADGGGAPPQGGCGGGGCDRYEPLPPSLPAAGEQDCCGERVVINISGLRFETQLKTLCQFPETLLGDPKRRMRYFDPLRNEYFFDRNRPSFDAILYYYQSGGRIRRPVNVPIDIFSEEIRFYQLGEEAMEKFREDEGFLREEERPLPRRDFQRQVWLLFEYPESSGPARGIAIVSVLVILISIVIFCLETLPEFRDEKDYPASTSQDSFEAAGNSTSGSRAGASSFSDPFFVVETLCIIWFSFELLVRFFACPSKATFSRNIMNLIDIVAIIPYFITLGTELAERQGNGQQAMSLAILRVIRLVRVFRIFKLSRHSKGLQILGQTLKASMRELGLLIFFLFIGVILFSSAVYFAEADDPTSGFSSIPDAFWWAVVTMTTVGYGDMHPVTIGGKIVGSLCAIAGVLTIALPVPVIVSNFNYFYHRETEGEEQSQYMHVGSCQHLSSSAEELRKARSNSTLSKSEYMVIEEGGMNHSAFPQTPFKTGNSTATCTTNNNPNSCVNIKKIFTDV

Structure (SMILES) | effect on hKv11.1 (hERG1) current (hKv11.1 (hERG1)) | effect on KCa1.1 current (mKCa1.1 (BK or MaxiK)) | potency estimated from few doses (hKv1.3; read-out: estimated IC50) [nM] | inhibition at 0.1 µM (hKv1.3; read-out: inhibition of Kv1.3) [%] | inhibition at 0.1 µM (hKv1.3; [1]) [%] | effect on hKv1.1 current (hKv1.1; 100 nM) | IC50 (hKv1.3) [nM] | Kd (hKv1.3) [nM] | koff (hKv1.3) [s⁻¹] | kon (hKv1.3) [M⁻¹ s⁻¹] | reversibility of Kv1.3 block (hKv1.3; 15 nM, then toxin-free solution) | equilibrium block of Kv1.3 (hKv1.3; 15 nM, n = 3) [%] | τon (development of block) (hKv1.3; Kv1.3, 15 nM, mean ± SEM, n = 3) [s] | τon, representative fit (hKv1.3; Kv1.3, 15 nM, representative fit (Figure S5B)) [s] | Hill coefficient (H) (hKv1.3; Kv1.3, Hill equation fit of RCF values) | τoff (wash-out) (hKv1.3; Kv1.3, after 15 nM, mean ± SEM, n = 3) [s] | τoff, representative fit (hKv1.3; Kv1.3, after 15 nM, representative fit (Figure S5B)) [s] | reduction of hKv1.1 peak current (hKv1.1; 100 nM, representative record, equilibrium block) | potency estimated from few doses (hKv1.1; CHO, read-out: estimated IC50) [nM] | inhibition at 0.1 µM (hKv1.1; CHO, read-out: inhibition of Kv1.1 current) [%]
CC[C@H](C)[C@H](N)C(=O)N[C@@H](Cc1ccccc1)C(=O)N[C@H](C(=O)N[C@@H](CC(N)=O)C(=O)N[C@H](C(=O)N[C@@H](CCCCN)C(=O)N[C@H]1CSSC[C@@H]2NC(=O)[C@H](CCCCN)NC(=O)CNC(=O)CNC(=O)[C@H](C)NC(=O)[C@H](Cc3c[nH]cn3)NC(=O)[C@H](CCC(N)=O)NC(=O)CNC(=O)[C@H](Cc3ccccc3)NC(=O)[C@H](CCCNC(=N)N)NC(=O)[C@H](CC(=O)O)NC(=O)[C@H](CCCCN)NC(=O)[C@@H]3CSSC[C@@H](C(=O)N[C@@H](Cc4ccc(O)cc4)C(=O)N4CCC[C@H]4C(=O)O)NC(=O)[C@H](CCCCN)NC(=O)[C@H](CSSC[C@H](NC(=O)[C@H](CCC(N)=O)NC(=O)[C@H](CCC(N)=O)NC(=O)[C@@H]4CCCN4C(=O)[C@H](CC(C)C)NC(=O)[C@H](CC(=O)O)NC1=O)C(=O)N[C@@H](CC(C)C)C(=O)N[C@@H](CCCNC(=N)N)C(=O)N1CCC[C@H]1C(=O)N3)NC(=O)[C@H](CCCCN)NC(=O)CNC(=O)[C@H](CC(N)=O)NC(=O)[C@H]([C@@H](C)CC)NC2=O)C(C)C)[C@@H](C)CC [Cvill6] (H-IFINVKCDLPQQCLRPCKDRFGQHAGGKCINGKCKCYP-OH; disulfide 7-29, 13-34, 17-36 (inferred); N-terminus and C-terminus assumed) | no change in current amplitudes | Neither Cvill6 nor Cvill7 showed any effect | ~840 | ~11 | ~13 | no change in current amplitudes | – | – | – | – | – | – | – | – | – | – | – | – | – | –
CC[C@H](C)[C@H](NC(=O)[C@H](Cc1ccccc1)NC(=O)[C@@H](N)[C@@H](C)O)C(=O)N[C@@H](CC(N)=O)C(=O)N[C@H](C(=O)N[C@@H](CCCCN)C(=O)N[C@H]1CSSC[C@@H]2NC(=O)[C@H](CCCCN)NC(=O)CNC(=O)CNC(=O)[C@H](C)NC(=O)[C@H](Cc3c[nH]cn3)NC(=O)[C@@H]3CCCN3C(=O)CNC(=O)[C@H](Cc3ccc(O)cc3)NC(=O)[C@H](CC(C)C)NC(=O)[C@H](CC(=O)O)NC(=O)[C@H](CCCCN)NC(=O)[C@@H]3CSSC[C@@H](C(=O)N[C@@H](Cc4ccc(O)cc4)C(=O)N[C@@H](CC(N)=O)C(=O)N[C@@H](CC(N)=O)C(N)=O)NC(=O)[C@H](CCCCN)NC(=O)[C@H](CSSC[C@H](NC(=O)[C@H](CCC(N)=O)NC(=O)[C@H](CCCCN)NC(=O)[C@@H]4CCCN4C(=O)[C@H](CO)NC(=O)[C@H]([C@@H](C)O)NC1=O)C(=O)N[C@@H](CC(C)C)C(=O)N[C@@H](CCCCN)C(=O)N1CCC[C@H]1C(=O)N3)NC(=O)[C@H](CCCCN)NC(=O)CNC(=O)[C@H](CC(N)=O)NC(=O)[C@H](CCSC)NC2=O)C(C)C [Cvill7] (H-TFINVKCTSPKQCLKPCKDLYGPHAGGKCMNGKCKCYNN-NH2; disulfide 7-29, 13-34, 17-36; N-terminus and C-terminus assumed) | did not show any effect | Neither Cvill6 nor Cvill7 showed any effect | – | – | ~86 | – | 7.2 ± 0.64 | 25 | 0.032 ± 0.0068 | 1.3e+06 | fully reversible with rapid association and dissociation kinetics | 67 ± 3 | 20 ± 1.8 | 22.6 | 0.73 | 34 ± 6 | 34.5 | ~ 32% | ~192 | ~34

From publication PMC12197678, “Cvill6 and Cvill7: Potent and Selective Peptide Blockers of Kv1.2 Ion Channel Isolated from Mexican Scorpion Centruroides villegasi” (Toxins, 2025)
